Data published in US20170128409A1, “PROPHYLACTIC OR THERAPEUTIC AGENT FOR ATTENTION DEFICIT/HYPERACTIVITY DISORDER” (Takeda Pharmaceutical Company Limited, priority 2008, published 2017).

How the values were obtained:
[1] = tested on: SHR-SP; settings: at a low dose; cited from earlier work
[2] = tested on: SHR-SP rats; experiment: 2-lever discriminative reaction task in SHR-SP rats (ADHD model); assay type: in vivo, rat
From the text: A. Test method (1) While spontaneously hypertensive rat (SHR) is a hypertension model rat widely used in research, this lineage not only develops hypertension but also behaves similarly in the juvenile stage to patients with attention deficit/hyperactivity disorder (attention-deficit/hyperactivity disorder: ADHD), as evidenced by disrupted retention of attention and the like (Sagvolden T, Russell V A, Aase H, Johansen E B, Farshbaf M. (2005): Rodent models of attention-deficit/hyperactivity disorder. Biol Psychiatry. 57(11): 1239-47). Particularly, SHR-SP (subtype of SHR) in the juvenile stage is recently recognized as an animal model of developmental disorder such as ADHD by those of ordinary skill in the art (Ueno K I, Togashi H, Mori K, Matsumoto M, Ohashi S, Hoshino A, Fujita T, Saito H, Minami M, Yoshioka M. (2002): Behavioural and pharmacological relevance of stroke-prone spontaneously hypertensive rats as an animal model of a developmental disorder. Behav Pharmacol. 13(1): 1-13).
Thus, those of ordinary skill in the art consider that SHR-SP is suitable as an ADHD model.
Therefore, the inventor employed the SHR-SP rats and evaluated the effect of compound A on ADHD.
(2) The test was performed using 24 SHR-SP rats and 12 WKY rats (both 5-week-old; provided by CLEA Japan, Inc.). They were reared at 12 hr light-dark cycle (light was on at 7:00 am) and allowed free access to water. The feeding was restricted such that the body weight was 85% of that by free food ingestion. All rats were subjected to handling before the test.
As a test apparatus, 4 Skinner boxes each equipped with a 45 mg feed pellet feeding tray (reward delivery opening) in the center of the wall and a cue lamp and a retractable lever set on the sides of the tray were set (see FIG. 1).
(3) The rats were trained for 2 days for lever pressing-feeding associative learning. One session consisted of 30 trials or 900 sec. Two levers were presented, pressing either lever affords feed pellets (reinforcer), and a buzzer sound indicating correctness was made. Solely in the training on the initial day, feed pellets were automatically given with a buzzer every 45 seconds. All animals reached the criteria obtaining 30 feed pellets within 300 sec. (4) In the test session, a 2-lever discriminative reaction task was performed. In the 2-lever discriminative reaction task, 1 session consisted of 30 sets of ITI (inter-trial interval) for 30 sec and reaction latency for 30 sec maximum. The house lamp was turned on at the start of the session to indicate both retractable levers. The lever pressing reaction of the animal was sequentially recorded while indicating the levers until completion of 30 trials. […]

Row | SMILES | effect on abnormal behaviors of SHR-SP [1] | transition of total number of reaction during trials (index of impulsivity) ([2]; 1.0 mg/kg oral daily, up to session 4, positive drug group vs control group, FIG. 5) | correct answer latency (reaction latency when correct answer was selected) (index of motivation, sedation and the like) ([2]; 1.0 mg/kg oral, 14 consecutive days, positive drug group vs control group, FIG. 7) | number of correct answers (number of reward obtained) (index of attentional deficit) ([2]; 1.0 mg/kg oral, 14 consecutive days, positive drug group vs control group, p=0.09, FIG. 6) | total number of reaction during trials (index of impulsivity) ([2]; 1.0 mg/kg oral, 14 consecutive days, session 11, positive drug group vs control group, t-test p=0.09, FIG. 5)
1 | COC(=O)C(c1ccccc1)C1CCCCN1 (centres unmarked) [methylphenidate] | improving effect | – | – | – | –
2 | CCC(=O)NCC[C@@H]1CCc2ccc3c(c21)CCO3 [compound A, (S)—N-[2-(1,6,7,8-tetrahydro-2H-indeno[5,4-b]furan-8-yl)ethyl]propionamide] | – | similar | did not show much difference | tended to increase | tended to decrease
